Measurements taken from article PMC2248166, “Quantitative peptide binding motifs for 19 human and mouse MHC class I molecules derived using positional scanning combinatorial peptide libraries” (Immunome Research, 2008).
Where a SMILES comes first, the peptide text is derived from it.

Legend:
Assay in all cases: biochemical
Assay type in all cases: binding
HLA B*0801 = HLA B*0801 (Homo sapiens, UniProt P01889, A93T/A95T/D138N/E176V/E187T/K202T/Q94N/R180D/S35A/V36M/Y33D/Y91F)
HLA B*1501 = HLA B*1501 (Homo sapiens, UniProt P01889, A329T/A93T/A95T/C349S/D201E/D98Y/E187L/E204Q/E69M/E70A/K202T/N87E/Q94N/R155S/R180W/S121R/S35A/S48A/V306I/V36M/Y140S/Y91S)
HLA A*3001 = HLA A*3001 (Homo sapiens, UniProt P04439, D140H/D185E/E176W/F33S/G80R/H175R/K168Q/R138E/R41S)
HLA A*3001, sequence (P04439 25-365 limits assumed, stated change not applied): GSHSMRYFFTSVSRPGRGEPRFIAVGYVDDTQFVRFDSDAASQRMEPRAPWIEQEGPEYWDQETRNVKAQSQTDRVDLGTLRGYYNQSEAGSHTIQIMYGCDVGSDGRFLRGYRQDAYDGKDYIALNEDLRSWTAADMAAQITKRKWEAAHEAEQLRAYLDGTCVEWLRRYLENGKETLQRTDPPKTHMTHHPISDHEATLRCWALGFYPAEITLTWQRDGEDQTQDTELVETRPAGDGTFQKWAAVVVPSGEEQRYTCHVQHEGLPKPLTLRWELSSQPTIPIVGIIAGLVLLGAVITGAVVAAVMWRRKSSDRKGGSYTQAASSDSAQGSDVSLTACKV

Compound | IC50 (HLA B*0801) | IC50 (HLA B*1501) | IC50 (HLA A*3001)
CC(C)[C@H](NC(=O)[C@H](C)NC(=O)[C@H](CO)NC(=O)[C@H](Cc1ccc(O)cc1)NC(=O)[C@H](CCCNC(=N)N)NC(=O)CNC(=O)[C@H](Cc1ccc(O)cc1)NC(=O)[C@@H](NC(=O)[C@@H](N)CCCCN)C(C)C)C(=O)O [3102.0117] (H-KVYGRYSAV-OH) | 4.2 nM | 95 nM | –
CC(C)C[C@H](NC(=O)[C@H](C)NC(=O)[C@H](CCCNC(=N)N)NC(=O)[C@H](Cc1c[nH]cn1)NC(=O)[C@H](CC(C)C)NC(=O)[C@H](Cc1c[nH]c2ccccc12)NC(=O)[C@H](CCCNC(=N)N)NC(=O)[C@@H](NC(=O)[C@@H](N)Cc1ccccc1)C(C)C)C(=O)O [3102.0526] (H-FVRWLHRAL-OH) | 1 nM | 16 nM | –
CC[C@H](C)[C@H](NC(=O)[C@H](CO)NC(=O)[C@H](CCCNC(=N)N)NC(=O)[C@H](CO)NC(=O)[C@H](CCSC)NC(=O)[C@H](CO)NC(=O)[C@H](CCCNC(=N)N)NC(=O)[C@@H](NC(=O)[C@@H](N)CO)[C@@H](C)CC)C(=O)O [3102.0527] (H-SIRSMSRSI-OH) | 77 nM | 363 nM | –
CC[C@H](C)[C@H](NC(=O)[C@H](CCCCN)NC(=O)[C@H](CC(N)=O)NC(=O)[C@H](CCCCN)NC(=O)[C@@H](NC(=O)[C@@H](N)Cc1ccccc1)[C@@H](C)CC)C(=O)N[C@@H](Cc1c[nH]cn1)C(=O)N[C@@H](CC(C)C)C(=O)N[C@@H](CC(C)C)C(=O)O [3102.0551] (H-FIKNKIHLL-OH) | 0.82 nM | 98 nM | –
CC[C@H](C)[C@H](NC(=O)[C@@H](N)CC(C)C)C(=O)N[C@@H](CCCNC(=N)N)C(=O)N[C@@H](CC(N)=O)C(=O)N[C@@H](CCCCN)C(=O)N[C@@H](CCCNC(=N)N)C(=O)N[C@@H](CC(C)C)C(=O)N[C@@H](CO)C(=O)N[C@@H](CC(C)C)C(=O)O [3102.0638] (H-LIRNKRLSL-OH) | 0.78 nM | 455 nM | –
CC[C@H](C)[C@H](NC(=O)[C@@H](N)CC(C)C)C(=O)NCC(=O)N[C@@H](C)C(=O)N[C@@H](CCCNC(=N)N)C(=O)N[C@@H](CCCNC(=N)N)C(=O)N[C@H](C(=O)N[C@@H](CO)C(=O)N[C@@H](Cc1ccccc1)C(=O)O)[C@@H](C)O [3102.0774] (H-LIGARRTSF-OH) | 1.5 nM | 40 nM | –
CC[C@H](C)[C@H](NC(=O)[C@H](C)N)C(=O)N[C@@H](CC(N)=O)C(=O)N[C@@H](CC(N)=O)C(=O)N[C@@H](CCCNC(=N)N)C(=O)N[C@H](C(=O)N[C@@H](CS)C(=O)N[C@H](C(=O)N[C@@H](CCSC)C(=O)O)C(C)C)[C@@H](C)CC [3102.0865] (H-AINNRICVM-OH) | 424 nM | 51 nM | –
CC(C)C[C@H](NC(=O)[C@@H](N)CC(C)C)C(=O)N[C@@H](CCCCN)C(=O)N1CCC[C@H]1C(=O)N[C@@H](CCCNC(=N)N)C(=O)N[C@@H](CS)C(=O)N[C@@H](CC(N)=O)C(=O)N1CCC[C@H]1C(=O)N[C@@H](C)C(=O)O [3102.0901] (H-LLKPRCNPA-OH) | 1.2 nM | 21 nM | –
CSCC[C@H](NC(=O)[C@@H](N)CO)C(=O)N[C@@H](Cc1c[nH]cn1)C(=O)N[C@@H](Cc1ccccc1)C(=O)N[C@@H](Cc1ccc(O)cc1)C(=O)NCC(=O)N[C@@H](Cc1c[nH]c2ccccc12)C(=O)N[C@@H](CO)C(=O)N[C@@H](CC(C)C)C(=O)O [3102.0946] (H-SMHFYGWSL-OH) | 2.9 nM | 63 nM | –
CC[C@H](C)[C@H](NC(=O)[C@H](CS)NC(=O)[C@H](CS)NC(=O)[C@H](Cc1c[nH]cn1)NC(=O)[C@H](CCCNC(=N)N)NC(=O)[C@H](CO)NC(=O)[C@@H](NC(=O)[C@H](CCSC)NC(=O)[C@@H](N)CO)[C@@H](C)CC)C(=O)O [3102.0973] (H-SMISRHCCI-OH) | 1.3 nM | 81 nM | –
CC[C@H](C)[C@H](NC(=O)[C@H](Cc1ccccc1)NC(=O)[C@H](CCSC)NC(=O)[C@H](Cc1ccccc1)NC(=O)[C@H](CCCCN)NC(=O)[C@H](CC(N)=O)NC(=O)[C@H](CCCNC(=N)N)NC(=O)[C@@H](NC(=O)[C@@H](N)CCCNC(=N)N)[C@@H](C)CC)C(=O)O [3102.0998] (H-RIRNKFMFI-OH) | 1.6 nM | – | 0.069 nM
